According to patent US20140357641A1, “IP receptor agonist heterocyclic compounds” (NOVARTIS AG, priority 2012, published 2014):

Biological target: T1, IP receptor (Homo sapiens, UniProt P43119)
T1 construct: expressed in transfected cells
Assay: cAMP accumulation in CHO cells stably expressing the IP receptor (CHO-IP), Perkin Elmer AlphaScreen assay
Assay type: cell-based
Conditions: agonist activity, 1 hour at room temperature
Protocol: Activity of compounds at the IP receptor (IP receptor) is assessed by measuring cAMP accumulation in CHO cells stably expressing the IP receptor (CHO-IP) using the Perkin Elmer AlphaScreen assay. This technology measures the endogenous production of cAMP, in a non-radioactive luminescence proximity homogenous assay. A biological reaction occurs between streptavidin coated donor beads, biotinylated cAMP and anti-cAMP acceptor beads, bringing the donor and acceptor beads close enough together so that upon excitation a fluorescence signal is produced. On production of endogenous cAMP, competition between the biotinylated cAMP and cellular-derived cAMP causes a reduction in the fluorescent signal. The reduction in signal is proportional to the amount of cAMP being produced, thus it is possible to quantify the amount of cAMP being produced on stimulation with agonist.
Test and reference compounds are prepared at 100× [final] in 100% DMSO, and diluted 1:3 using a Biomek Fx (Beckman Coulter). This is followed by an intermediate dilution to give 5× [final] in assay buffer (HBSS containing 5 mM HEPES, 0.1% (w/v) BSA). 5 μL of 5× [final] test compounds, reference compounds and buffer/DMSO control are then transferred to a 384-well white OptiPlate, containing 20 μL CHO-IP cell suspension (15,000 cells/well, prepared from frozen), and plate is incubated at room temperature for 1 hour. A cAMP standard curve is constructed for each experiment (concentration range of 10000 nM to 0.001 nM, in assay buffer) and 25 μL of each concentration added to the last two columns of the assay plate. The incubation is terminated by the addition of lysis buffer (dH2O; 0.3% (v v^−1) Tween-20) containing 20 units mL^−1 streptavidin coated donor beads and biotinylated cAMP (pre-incubated for 30 minutes) and 20 units mL^−1 anti-cAMP acceptor beads, which are added to the lysis buffer just before addition to the assay plate. The assay plate is then incubated at room temperature in the dark, for 60 minutes with gentle shaking, and read on the Envision plate reader (Perkin Elmer).
The raw data of the reference compounds, test compounds and controls are converted into cAMP concentrations, using the cAMP standard curve, in GraphPadPrism (GraphPad Software Inc). EC50 as well as maximal values of the agonist curves are determined using a 4-parameter logistic equation. The % maximum response values of all test compounds are determined using the top of the treprostinil concentration-response curve.

T1 sequence (P43119 whole entry): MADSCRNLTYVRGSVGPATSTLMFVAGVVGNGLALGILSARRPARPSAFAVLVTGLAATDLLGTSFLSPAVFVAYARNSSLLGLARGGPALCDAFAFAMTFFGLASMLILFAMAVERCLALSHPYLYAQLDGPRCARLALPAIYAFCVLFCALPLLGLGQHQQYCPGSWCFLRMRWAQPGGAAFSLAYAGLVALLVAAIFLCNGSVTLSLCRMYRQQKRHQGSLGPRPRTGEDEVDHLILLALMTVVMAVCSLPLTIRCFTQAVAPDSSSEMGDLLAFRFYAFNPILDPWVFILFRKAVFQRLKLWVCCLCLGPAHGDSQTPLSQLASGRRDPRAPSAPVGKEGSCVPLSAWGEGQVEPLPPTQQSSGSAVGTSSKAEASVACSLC

| SMILES | EC50 [nM] |
| --- | --- |
| Cc1ccc(-c2nc3c(nc2-c2ccc(C)cc2)N(CCCCC2SC(=O)NC2=O)CCC3)cc1 (racemic) [Example 1, rac-5-(4-(2,3-Di-p-tolyl-7,8-dihydropyrido[2,3-b]pyrazin-5(6H)-yl)butyl)thiazolidine-2,4-dione] | 8.91 |
| Cc1ccc(-c2nc3c(nc2-c2ccc(C)cc2)N(CCCCC2SC(=O)NC2=O)CCC3)cc1 (single isomer, unassigned) [1(a), (S)-5-(4-(2,3-di-p-tolyl-7,8-dihydropyrido[2,3-b]pyrazin-5(6H)-yl)butyl)thiazolidine-2,4-dione or (R)-5-(4-(2,3-di-p-tolyl-7,8-dihydropyrido[2,3-b]pyrazin-5(6H)-yl)butyl)thiazolidine-2,4-dione] | 3.71 |
| Cc1ccc(-c2nc3c(nc2-c2ccc(C)cc2)N(CCCCC2SC(=O)NC2=O)CCC3)cc1 (single isomer, unassigned) [1(b), (S)-5-(4-(2,3-di-p-tolyl-7,8-dihydropyrido[2,3-b]pyrazin-5(6H)-yl)butyl)thiazolidine-2,4-dione or (R)-5-(4-(2,3-di-p-tolyl-7,8-dihydropyrido[2,3-b]pyrazin-5(6H)-yl)butyl)thiazolidine-2,4-dione] | 12 |
| Cc1ccc(-c2nc3c(nc2-c2ccc(C)cc2)N(CCCCCC2=C(O)CCC2=O)CCC3)cc1 [Example 3, 2-(5-(2,3-Di-p-tolyl-7,8-dihydropyrido[2,3-b]pyrazin-5(6H)-yl)pentyl)-3-hydroxycyclopent-2-enone] | 7.68 |
| Cc1ccc(-c2nc3c(nc2-c2ccc(C)cc2)N(CCCC/C=C2/SC(=O)NC2=O)CCC3)cc1 [Example 4, 5-(5-(2,3-Ddi-p-tolyl-7,8-dihydropyrido[2,3-b]pyrazin-5(6H)-yl)pentylidene)thiazolidine-2,4-dione] | 2 |
| Cc1ccc(-c2nc3c(nc2-c2ccc(C)cc2)N(CCCCC2=C(O)CCC2=O)CCC3)cc1 [Example 5, 2-(4-(2,3-Ddi-p-tolyl-7,8-dihydropyrido[2,3-b]pyrazin-5(6H)-yl)butyl)-3-hydroxycyclopent-2-enone] | 165 |
| Cc1ccc(-c2nc3c(nc2-c2ccc(C)cc2)N(CCCCCCc2noc(=O)[nH]2)CCC3)cc1 [Example 6, 3-(6-(2,3-Di-p-tolyl-7,8-dihydropyrido[2,3-b]pyrazin-5(6H)-yl)hexyl)-1,2,4-oxadiazol-5(4H)-one] | 28.3 |
| Cc1ccc(-c2nc3c(nc2-c2ccc(C)cc2)N(CCCCCc2noc(=O)[nH]2)CCC3)cc1 [Example 6.1, 3-(5-(2,3-Di-p-tolyl-7,8-dihydropyrido[2,3-b]pyrazin-5(6H)-yl)pentyl)-1,2,4-oxadiazol-5(4H)-one] | 15.3 |
| Cc1ccc(-c2nc3c(nc2-c2ccc(C)cc2)N(CCCCc2noc(=O)[nH]2)CCC3)cc1 [Example 6.2, 3-(4-(2,3-Di-p-tolyl-7,8-dihydropyrido[2,3-b]pyrazin-5(6H)-yl)butyl)-1,2,4-oxadiazol-5(4H)-one] | 14.7 |
| Cc1ccc(-c2nc3c(nc2-c2ccc(C)cc2)N(CCCCC2CC(=O)NO2)CCC3)cc1 (centres unmarked) [Example 7, 5-(4-(2,3-Di-p-tolyl-7,8-dihydropyrido[2,3-b]pyrazin-5(6H)-yl)butyl)isoxazolidin-3-one] | 2.86 |
| Cc1ccc(-c2nc3c(nc2-c2ccc(C)cc2)N(CCCCc2cc(O)no2)CCC3)cc1 [Example 8, 5-(4-(2,3-Di-p-tolyl-7,8-dihydropyrido[2,3-b]pyrazin-5(6H)-yl)butyl)isoxazol-3-ol] | 34.3 |
